Assay [1] relates to MCF7 breast adenocarcinoma cell line. Briefly: Cell viability assay (MTT). It counts as cell-based, human. Summed up: (§1)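 Viability by MTT: 10^4 cells/well exposed 24 h to 2-fold peptide dilutions from 100 μM in DMEM, then 1 h with 0.5 mg mL−1 MTT; absorbance at 540 nm relative to peptide-free medium as 100% survival. EC50 from a 3-parameter log-logistic fit.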
The test system of assay [2] is A549 lung adenocarcinoma cell line. Briefly: Cell viability assay (MTT). It counts as cell-based, human. To be noted: MTT. Summed up: as §1
In assay [3] the test system is SN12C. Briefly: NCI-60 screening. Particulars: SN12C (Renal); log GI50; 48 h, sulforhodamine B, 10^-4 to 10^-8 M. The class given is cell-based, human. The method, then: (§2) NCI-60 screening procedure
(§3) The NCI-60 screening procedure was performed by the Developmental Therapeutics Program of the National Cancer Institute. The procedure was performed as previously described24 in 96-well microtiter plates. Each peptide was tested in a 5-concentration assay, starting at 10^-4 M and diluting 10-fold to the lowest 10^-8 M concentration. The peptides were incubated for 48 h and the cell concentration was assayed by using the sulforhodamine B assay25 and optical density measurements. The growth inhibition (GI50) value24, measures the growth inhibitory power of the drug agent. The GI50 value is the concentration of the test drug for which the condition in Eq. S1 is met, where T is the optical density of the test well after a 48-h exposure to the peptide, T0 the optical density before applying the peptide drug and C the control optical density of a well where no peptide was applied.

Assay [4] concerns HCT-15. As to the kind of experiment: NCI-60 screening. It counts as cell-based, human. Particulars: HCT-15 (Colon); log GI50; 48 h, sulforhodamine B, 10^-4 to 10^-8 M. The method, then:
as §2, §3

In assay [5] the test system is HCC-2998. Briefly: NCI-60 screening. The class given is cell-based, human. To be noted: HCC-2998 (Colon); log GI50; 48 h, sulforhodamine B, 10^-4 to 10^-8 M. How it is done:
as §2, §3

The test system of assay [6] is SF-539. Briefly: NCI-60 screening. It counts as cell-based, human. Particulars: SF-539 (CNS); log GI50; 48 h, sulforhodamine B, 10^-4 to 10^-8 M. The method, then: as §2, §3
For assay [7], the system named is HS-578T. As to the kind of experiment: NCI-60 screening. The class given is cell-based, human. To be noted: HS-578T (Breast); log GI50; 48 h, sulforhodamine B, 10^-4 to 10^-8 M. How it is done: as §2, §3
Assay [8] concerns OVCAR-3. Briefly: NCI-60 screening. The class given is cell-based, human. Particulars: OVCAR-3 (Ovarian); log GI50; 48 h, sulforhodamine B, 10^-4 to 10^-8 M. The method, then:
as §2, §3

In assay [9] the test system is MALME-3M. Briefly: NCI-60 screening. The class given is cell-based, human. Particulars: MALME-3M (Melanoma); log GI50; 48 h, sulforhodamine B, 10^-4 to 10^-8 M. How it is done: as §2, §3
Assay [10] concerns OVCAR-4. As to the kind of experiment: NCI-60 screening. To be noted: OVCAR-4 (Ovarian); log GI50; 48 h, sulforhodamine B, 10^-4 to 10^-8 M. The class given is cell-based, human. The method, then: as §2, §3
Assay [11] deals with NCI-H322M. Briefly: NCI-60 screening. It counts as cell-based, human. Particulars: NCI-H322M (Lung); log GI50; 48 h, sulforhodamine B, 10^-4 to 10^-8 M. How it is done:
as §2, §3

Assay [12] concerns M14. As to the kind of experiment: NCI-60 screening. It counts as cell-based, human. Particulars: M14 (Melanoma); log GI50; 48 h, sulforhodamine B, 10^-4 to 10^-8 M. The method, then: as §2, §3
The subject of assay [13] is BT-549. Briefly: NCI-60 screening. The class given is cell-based, human. Particulars: BT-549 (Breast); log GI50; 48 h, sulforhodamine B, 10^-4 to 10^-8 M. How it is done: as §2, §3
For assay [14], the system named is T-47D. As to the kind of experiment: NCI-60 screening. The class given is cell-based, human. Particulars: T-47D (Breast); log GI50; 48 h, sulforhodamine B, 10^-4 to 10^-8 M. The method, then:
as §2, §3

The test system of assay [15] is PC-3. Briefly: NCI-60 screening. To be noted: PC-3 (Prostate); log GI50; 48 h, sulforhodamine B, 10^-4 to 10^-8 M. It counts as cell-based, human. How it is done:
as §2, §3

The test system of assay [16] is IGVROV1. Briefly: NCI-60 screening. It counts as cell-based, human. To be noted: IGVROV1 (Ovarian); log GI50; 48 h, sulforhodamine B, 10^-4 to 10^-8 M. The method, then: as §2, §3
Assay [17] has as its system SF-268. As to the kind of experiment: NCI-60 screening. The class given is cell-based, human. To be noted: SF-268 (CNS); log GI50; 48 h, sulforhodamine B, 10^-4 to 10^-8 M. The method, then:
as §2, §3

Assay [18] deals with noncancer HDMEC primary cells (human dermal microvascular endothelial cells). Briefly: Cell viability assay (MTT). The class given is cell-based. To be noted: for EC50: Table S2, noncancer primary cells, MTT, 24 h, mean ± sd, N = 2 independent measurements with six technical replicates each (Figs S6-S8). The procedure, abridged:
as §1

Read-outs that look alike come from different tables or passages of the source. Peptide text beside a SMILES is read from it.

With `CC[C@H](C)[C@H](NC(=O)[C@H](CCCNC(=N)N)NC(=O)[C@H](Cc1c[nH]c2ccccc12)NC(=O)[C@@H](NC(=O)[C@H](CCCCN)NC(=O)[C@H](CCCCN)NC(=O)[C@@H](NC(=O)[C@@H](NC(=O)[C@@H](NC(=O)[C@H](CCCCN)NC(=O)[C@H](Cc1ccccc1)NC(=O)[C@H](CCCCN)NC(=O)[C@H](CCCCN)NC(=O)[C@H](Cc1ccccc1)NC(=O)[C@@H](NC(=O)[C@@H](N)CCCCN)[C@@H](C)CC)[C@@H](C)O)[C@@H](C)CC)[C@@H](C)CC)C(C)C)C(=O)N[C@@H](Cc1ccccc1)C(=O)NCC(=O)N[C@@H](CCCNC(=N)N)C(=O)N[C@@H](Cc1ccccc1)C(N)=O` [AmphiArc2] (H-KIFKKFKTIIKKVWRIFGRF-NH2), the EC50 stood at 5.7 ± 0.7 µM in assay [1] (10^4 cells per well, 24 h with peptide, 2-fold dilution series from 100 µM in DMEM, absorbance 540 nm, mean ± std, N = 3); 9.3 ± 1.5 µM in assay [2] (10^4 cells per well, 24 h with peptide, 2-fold dilution series from 100 µM in DMEM, absorbance 540 nm, mean ± std, N = 3, read-out: A549 EC50/µM); 3.3 ± 0.2 µM in assay [18]. Further, the “Log GI (M)” value is given as -5.69 M in [3]; -5.58 M in assay [4]; -5.58 M in assay [5]; -5.72 M in assay [6]; -5.65 M in assay [7]; -5.67 M in [8]. Moreover, the “Log GI (M)” value is reported as -5.89 M in assay [9]; -5.67 M in [10]; -5.73 M in [11]; -5.62 M in assay [12]; -5.45 M in assay [13]; -5.66 M in [14]. Besides, the “Log GI (M)” value is given as -5.66 M in assay [15], -5.68 M in [16] and -5.68 M in assay [17]. Also, in assay [18] (Fig. 1d, compared with the EC50 against cancer cell lines, N = 3), the “EC50 value against the noncancer HDMEC primary cell line (in words)” value was “same low-micromolar range”.
As to `CC[C@H](C)[C@H](NC(=O)[C@H](CCCCN)NC(=O)[C@H](CCCCN)NC(=O)[C@@H](NC(=O)[C@@H](NC(=O)[C@@H](N)Cc1c[nH]cn1)[C@@H](C)CC)[C@@H](C)CC)C(=O)N[C@@H](CCCNC(=N)N)C(=O)N[C@H](C(=O)N[C@@H](Cc1c[nH]c2ccccc12)C(=O)N[C@@H](Cc1ccc(O)cc1)C(=O)N[C@@H](CCCNC(=N)N)C(=O)N[C@@H](CCCCN)C(=O)N[C@@H](C)C(=O)N[C@@H](Cc1c[nH]c2ccccc12)C(=O)N[C@@H](Cc1c[nH]cn1)C(=O)N[C@H](C(=O)N[C@@H](CC(C)C)C(=O)NCC(=O)N[C@@H](CCCCN)C(=O)N[C@H](C(N)=O)C(C)C)C(C)C)[C@@H](C)O` [Off2] (H-HIIKKIRTWYRKAWHVLGKV-NH2), the EC50 turned out to be 10 ± 2 µM in assay [1] (Table S2, 24 h, mean ± sd, N = 2 independent measurements with six technical replicates each (Figs S6-S8)); 17 ± 0.6 µM in assay [2] (Table S2, 24 h, mean ± sd, N = 2 independent measurements with six technical replicates each (Figs S6-S8), read-out: A549 EC50 /µM); 32 ± 3 µM in assay [18]. The “Log GI (M)” value in [3] is -5.53 M; in assay [4] it was -5.37 M; in assay [5], -5.41 M; in assay [6] it was -5.67 M; in assay [7], -5.45 M; in assay [8], -4.98 M. Moreover, the “Log GI (M)” value was -5.64 M in [9]; -4.89 M in [10]; -5.30 M in assay [11]; -5.38 M in assay [12]; -4.89 M in assay [13]; -5.72 M in assay [14]. The “Log GI (M)” value is given as -5.55 M in assay [15], -5.36 M in [16] and -5.46 M in assay [17].

The values are drawn from PMC6677754, “In silico design and optimization of selective membranolytic anticancer peptides” (Scientific Reports, 2019).
